Results on 1 compound are retold here after publication PMC11219860, “A chemogenetic approach for dopamine imaging with tunable sensitivity” (Nature Communications, 2024).

The subject of test [1] is dLight1.3b. In words: In vivo photometry of optogenetically-evoked DA release in PFC. Set-up: species or system mouse. The settings on record: DETQ 10 mg/kg i.p. The protocol: Fiber photometry combined with optogenetics was conducted using a RZ10X LUX-I/O Processor with integrated LEDs (Tucker-Davis Technologies) combined with a filter/mirror minicube set (FMC6_IE(400-410)_E1(467-497)_F1(507-554)_E2(566-586)_F2(600-680)_S) (Doric Lenses). […] Low-autofluorescence patch cords (400 µm/0.57 NA, Doric) were attached to the optic fibers (400 µm/0.66 NA, Doric) on the mouse’s head to collect fluorescence emissions. Signals were filtered through 500–540 nm GFP emission filters coupled to a photodetector on the RZ10X. […] Data were sampled at 1017.3 Hz. […] For optogenetic stimulation, a 635 nm LED was passed through the 580–680 nm minicube F2 port and reached the mouse through the same unique optic fiber; the LED was driven at 1 to 3 mW. To determine the ‘temporal window for stable imaging’ in the PFC using dLight1.3b recordings, DAT^IREScre mice expressing ChrimsonR in VTA DA axons and dLight1.3b in the PFC were injected i.p. with vehicle at 0 min, followed by DETQ (10 mg/kg) 25 min later. After each injection, PFC DA axons were optically (opto) activated across 5 trials (2 s, 20 Hz, 20-ms pulses) for the vehicle (20 min) and […] for DETQ (1h05 min) every 5 min. DA release was measured with fiber photometry. In another session, the same mice were injected with Veh, then DETQ (10 mg/kg) 20 min later, then cocaine (20 mg/kg) 25 min later, and the same optogenetic protocol was applied (2 s, 20 Hz, 20-ms pulses every 5 min). For optogenetic validation of AlloLite-ctr in the NAc, DAT^IREScre mice expressing ChrimsonR in VTA DA axons were injected i.p. with vehicle (Day 1) or DETQ (10 mg/kg) (Day 8) at 0 min, followed by cocaine (20 mg/kg) 20 min later. After each injection, NAc DA axons were optically (opto) activated across 3 trials (2 s, 20 Hz, 20-ms pulses) every 5 min and DA released measured with fiber photometry. […] After each injection, NAc DA axons were optically (opto) inhibited (10 s, continuous trials) every 3 min (8 trials/condition) and DA released measured with fiber photometry. […] DA release was measured with fiber photometry.
For long-term recordings during optogenetic stimulation or chemogenetic inhibition linear fit was calculated across the entire recording or across the vehicle epoch; for event-related experiments fit was performed on fluorescent data obtained in the −60 to +60 s around opto events or −5 to −1 s around behavioral events. […] DA event-related responses were quantified by computing the value at the transient’s peak value and the AUC in the 0 to 10 s or 0 to 60 s period post-event onset. […] The maximal peak value of Veh-normalized ΔF/F0 after opto-onset was plotted over time and the plateau of maximal response was determined by averaging peak opto responses 5, 10, 15 and 20 min post-DETQ. […]

The test system of test [2] is 14 other human targets (including D5, D2, Beta-1, Beta-2 and 5-HT6). On the set-up: method as in Hao et al., 2019. The following applies: at 10 uM; ref Hao et al., 2019; cited from earlier work.
For test [3], the system named is NAc DRD1-MSNs. Nature of the test: Footshock-induced NAc DRD1-MSN activity (jGCaMP8m photometry). The following applies: DETQ 10 mg/kg; SCH-23390 0.1 mg/kg i.p.
Protocol: Cue-reward paradigm (NAc recordings) was carried out in an operant chamber within a sound-attenuating box with low red light illumination (30 Lux). […] During the next session mice were trained to initiate reward delivery via licking. […] During expert sessions CS-US pairings were repeated 20 times per session ( ~ 30 min for each session). Mice underwent a total of 12 sessions for cue-reward learning. 10 minutes before each session drugs were injected i.p. […] The rewards were delivered from 10 to 40 min post vehicle or DETQ injection. Chambers and lick ports were sanitized with ethanol between mice. For all sessions, lick data and photometry recordings were simultaneously obtained; licking behaviour was detected by a capacity-based sensor. Latency to reward-anticipatory licking was calculated as the time between the CS and lick onset. The lick proportion was calculated as the percent time mice spent licking during CS presentation divided by the percent time mice spent licking during the rest of the session (without CS). […] Fiber photometry recordings were analyzed using custom-written Matlab scripts. […] Change in fluorescence, ΔF/F0 (%), was defined as (F-F0)/F0 x 100, where F represents the fluorescent signal (465-nm) at each time point. F0 was calculated by applying a least-squares linear fit (polyfit) to the 405-nm signal to align with the 465-nm signal. […]

SMILES strings stand for the structures.

Regarding `C[C@H]1c2cccc(C(C)(C)O)c2C[C@H](CO)N1C(=O)Cc1c(Cl)cccc1Cl` [DETQ, 2-(2,6-dichlorophenyl)-1-((1S,3R)-3-(hydroxymethyl)-5-(2-hydroxypropan-2-yl)-1-methyl-3,4-dihydroisoquinolin-2(1H)-yl)ethan-1-one], in test [1], the “duration of stable increase in DA sensitivity” value amounted to 31 min; the “opto-evoked DA signal amplitude” value is “clear and significant increase”; the “opto-evoked DA signal decay time” value is “clear and significant increase”. The “activity in potentiator mode” value in test [2] is reported as “no activity was found”. Further, in test [3], the “footshock-induced activity in NAc DRD1-MSNs” value is recorded as “remained unaffected”.
